Assay [1] relates to Saccharomyces cerevisiae. In words: DNA damaging activity against DNA repair-deficient yeast RAD52 mutant assessed as drug concentration required to produce 12 mm zone of inhibition. In kind it is functional.
Assay [2] has as its system Saccharomyces cerevisiae. In words: DNA damaging activity against DNA repair-proficient yeast RAD+ assessed as drug concentration required to produce 12 mm zone of inhibition. The format is functional.

The source of these data is ChEMBL document CHEMBL1150602, “Novel diterpene lactones from Suregada multiflora” (2002).

`COC1=C(N)C(=O)c2nc(-c3nc(C(=O)O)c(C)c(-c4ccc(OC)c(OC)c4O)c3N)ccc2C1=O` [STREPTONIGRIN]: the values for the IC12 in the assay on Saccharomyces cerevisiae [1] and in the assay with Saccharomyces cerevisiae [2] were 0.4 µg/mL and > 1 µg/mL, respectively.

For `CC1=C2[C@@H](O)[C@]3(O)CC[C@@H]4[C@@]5(C)C[C@H]5CC[C@@]4(C)[C@@H]3C[C@H]2OC1=O` [SUREGADOLIDE A], the IC12 is 35 µg/mL in the assay on Saccharomyces cerevisiae [1] and 70 µg/mL in the assay with Saccharomyces cerevisiae [2].
